This data set can be described thus: activity coefficient (dimensionless); of the first substance listed, at infinite dilution; xn = mol fraction of the nth substance listed. As to conditions: 101 kPa, Liquid, Chromatography, x1 = 0.

This note sets out measurements from the NIST ThermoML archive (doi:10.1021/je300692s).

Numbers after ± are expanded uncertainties.

With `Cc1ccccc1C` [1,2-dimethylbenzene] + CCCCCCCCCC[N+]1(C)CCCC1.O=S(=O)([N-]S(=O)(=O)C(F)(F)F)C(F)(F)F, the activity coefficient (322.6 K) was 0.92 ± 0.09, the activity coefficient (332.5 K) stood at 0.94 ± 0.1 and the activity coefficient (342.8 K) was found to be 0.96 ± 0.1.
Turning to `Cc1ccccc1C` [1,2-dimethylbenzene] + CCCCCCCC[N+]1(C)CCCC1.O=S(=O)([N-]S(=O)(=O)C(F)(F)F)C(F)(F)F, the activity coefficient (323 K) amounted to 0.92 ± 0.09, the activity coefficient (333 K) was 0.87 ± 0.09 and the activity coefficient (343.1 K) worked out at 0.97 ± 0.1.
Consider `Cc1ccccc1C` [1,2-dimethylbenzene] + CCCCCC[N+]1(C)CCCC1.O=S(=O)([N-]S(=O)(=O)C(F)(F)F)C(F)(F)F, for which the activity coefficient (322.9 K) amounted to 1.17 ± 0.12, the activity coefficient (333 K) amounted to 1.28 ± 0.13 and the activity coefficient (343.1 K) came to 1.31 ± 0.13.
As to `Cc1cccc(C)c1` [1,3-dimethylbenzene] + CCCCCCCCCC[N+]1(C)CCCC1.O=S(=O)([N-]S(=O)(=O)C(F)(F)F)C(F)(F)F, the activity coefficient (322.6 K) worked out at 0.99 ± 0.1, the activity coefficient (332.5 K) came out at 1 ± 0.1 and the activity coefficient (342.8 K) worked out at 1.03 ± 0.1.
For the compound `Cc1cccc(C)c1` [1,3-dimethylbenzene] + CCCCCCCC[N+]1(C)CCCC1.O=S(=O)([N-]S(=O)(=O)C(F)(F)F)C(F)(F)F, the activity coefficient came to 1 ± 0.1 (323 K), 0.84 ± 0.09 (333 K) and 1.05 ± 0.11 (343.1 K).
`Cc1cccc(C)c1` [1,3-dimethylbenzene] + CCCCCC[N+]1(C)CCCC1.O=S(=O)([N-]S(=O)(=O)C(F)(F)F)C(F)(F)F: the activity coefficient came out at 1.28 ± 0.13 (322.9 K), 1.39 ± 0.14 (333 K) and 1.42 ± 0.15 (343.1 K).
In the case of `Cc1ccc(C)cc1` [1,4-dimethylbenzene] + CCCCCCCCCC[N+]1(C)CCCC1.O=S(=O)([N-]S(=O)(=O)C(F)(F)F)C(F)(F)F, the activity coefficient runs as follows: (322.6 K) 1 ± 0.1; (332.5 K) 1.01 ± 0.1; (342.8 K) 1.03 ± 0.1.
For the compound `Cc1ccc(C)cc1` [1,4-dimethylbenzene] + CCCCCCCC[N+]1(C)CCCC1.O=S(=O)([N-]S(=O)(=O)C(F)(F)F)C(F)(F)F, the activity coefficient was found to be 1.01 ± 0.1 (323 K), 0.99 ± 0.1 (333 K) and 1.05 ± 0.11 (343.1 K).
`Cc1ccc(C)cc1` [1,4-dimethylbenzene] + CCCCCC[N+]1(C)CCCC1.O=S(=O)([N-]S(=O)(=O)C(F)(F)F)C(F)(F)F: the activity coefficient by setting is: (322.9 K) 1.35 ± 0.14; (333 K) 1.4 ± 0.14; (343.1 K) 1.42 ± 0.15.
Turning to `C1COCCO1` [1,4-dioxane] + CCCCCCCCCC[N+]1(C)CCCC1.O=S(=O)([N-]S(=O)(=O)C(F)(F)F)C(F)(F)F, the activity coefficient by setting is: (322.6 K) 0.38 ± 0.05; (332.5 K) 0.35 ± 0.04; (342.8 K) 0.38 ± 0.05.
Take `C1COCCO1` [1,4-dioxane] + CCCCCCCC[N+]1(C)CCCC1.O=S(=O)([N-]S(=O)(=O)C(F)(F)F)C(F)(F)F: the activity coefficient by setting is: (323 K) 0.32 ± 0.04; (333 K) 0.6 ± 0.06; (343.1 K) 0.31 ± 0.04.
Regarding `C1COCCO1` [1,4-dioxane] + CCCCCC[N+]1(C)CCCC1.O=S(=O)([N-]S(=O)(=O)C(F)(F)F)C(F)(F)F, the activity coefficient by setting is: (322.9 K) 0.58 ± 0.06; (333 K) 0.42 ± 0.05; (343.1 K) 0.44 ± 0.05.
Turning to `C#CCCCCC` [1-heptyne] + CCCCCCCCCC[N+]1(C)CCCC1.O=S(=O)([N-]S(=O)(=O)C(F)(F)F)C(F)(F)F, the activity coefficient reads like this: (322.6 K) 1.81 ± 0.19; (332.5 K) 1.83 ± 0.19; (342.8 K) 1.83 ± 0.19.
For `C#CCCCCC` [1-heptyne] + CCCCCCCC[N+]1(C)CCCC1.O=S(=O)([N-]S(=O)(=O)C(F)(F)F)C(F)(F)F, the activity coefficient is, setting by setting: (323 K) 1.94 ± 0.2; (333 K) 1.89 ± 0.2; (343.1 K) 1.9 ± 0.2.
Consider `C#CCCCCC` [1-heptyne] + CCCCCC[N+]1(C)CCCC1.O=S(=O)([N-]S(=O)(=O)C(F)(F)F)C(F)(F)F, for which the activity coefficient (322.9 K) was found to be 2.24 ± 0.24, the activity coefficient (333 K) is 2.79 ± 0.29 and the activity coefficient (343.1 K) stood at 2.78 ± 0.29.
In the case of `C#CCCCC` [1-hexyne] + CCCCCCCCCC[N+]1(C)CCCC1.O=S(=O)([N-]S(=O)(=O)C(F)(F)F)C(F)(F)F, the activity coefficient is, setting by setting: (322.6 K) 1.5 ± 0.16; (332.5 K) 1.48 ± 0.15; (342.8 K) 1.47 ± 0.15.
For the compound `C#CCCCC` [1-hexyne] + CCCCCCCC[N+]1(C)CCCC1.O=S(=O)([N-]S(=O)(=O)C(F)(F)F)C(F)(F)F, the activity coefficient reads like this: (323 K) 1.57 ± 0.16; (333 K) 1.58 ± 0.16; (343.1 K) 1.34 ± 0.14.
Consider `C#CCCCC` [1-hexyne] + CCCCCC[N+]1(C)CCCC1.O=S(=O)([N-]S(=O)(=O)C(F)(F)F)C(F)(F)F, for which the activity coefficient (322.9 K) was 2.1 ± 0.22, the activity coefficient (333 K) worked out at 2.1 ± 0.22 and the activity coefficient (343.1 K) came out at 2.09 ± 0.22.
On to `CCC[N+](=O)[O-]` [1-nitropropane] + CCCCCCCCCC[N+]1(C)CCCC1.O=S(=O)([N-]S(=O)(=O)C(F)(F)F)C(F)(F)F, for which the activity coefficient (322.6 K) was 0.62 ± 0.07, the activity coefficient (332.5 K) came to 0.61 ± 0.07 and the activity coefficient (342.8 K) came to 0.6 ± 0.06.
For the compound `CCC[N+](=O)[O-]` [1-nitropropane] + CCCCCCCC[N+]1(C)CCCC1.O=S(=O)([N-]S(=O)(=O)C(F)(F)F)C(F)(F)F, the activity coefficient came out at 0.55 ± 0.06 (323 K), 0.52 ± 0.06 (333 K) and 0.51 ± 0.06 (343.1 K).
As to `CCC[N+](=O)[O-]` [1-nitropropane] + CCCCCC[N+]1(C)CCCC1.O=S(=O)([N-]S(=O)(=O)C(F)(F)F)C(F)(F)F, the activity coefficient by setting is: (322.9 K) 0.66 ± 0.07; (333 K) 0.66 ± 0.07; (343.1 K) 0.65 ± 0.07.
In the case of `CC(C)CO` [2-methyl-1-propanol] + CCCCCCCCCC[N+]1(C)CCCC1.O=S(=O)([N-]S(=O)(=O)C(F)(F)F)C(F)(F)F, the activity coefficient reads like this: (322.6 K) 1.7 ± 0.18; (332.5 K) 1.53 ± 0.16; (342.8 K) 1.39 ± 0.14.
Take `CC(C)CO` [2-methyl-1-propanol] + CCCCCCCC[N+]1(C)CCCC1.O=S(=O)([N-]S(=O)(=O)C(F)(F)F)C(F)(F)F: the activity coefficient reads like this: (323 K) 1.59 ± 0.17; (333 K) 1.44 ± 0.15; (343.1 K) 1.22 ± 0.13.
Consider `CC(C)CO` [2-methyl-1-propanol] + CCCCCC[N+]1(C)CCCC1.O=S(=O)([N-]S(=O)(=O)C(F)(F)F)C(F)(F)F, for which the activity coefficient is, setting by setting: (322.9 K) 1.87 ± 0.11; (333 K) 2.67 ± 0.16; (343.1 K) 1.65 ± 0.1.
For the compound `CCC(C)CC` [3-methylpentane] + CCCCCCCCCC[N+]1(C)CCCC1.O=S(=O)([N-]S(=O)(=O)C(F)(F)F)C(F)(F)F, the activity coefficient runs as follows: (322.6 K) 3.65 ± 0.38; (332.5 K) 3.36 ± 0.35; (342.8 K) 3.4 ± 0.36.
For `CCC(C)CC` [3-methylpentane] + CCCCCCCC[N+]1(C)CCCC1.O=S(=O)([N-]S(=O)(=O)C(F)(F)F)C(F)(F)F, the activity coefficient is, setting by setting: (323 K) 4.61 ± 0.48; (333 K) 4.52 ± 0.47; (343.1 K) 4.08 ± 0.43.
As for `CCC(C)CC` [3-methylpentane] + CCCCCC[N+]1(C)CCCC1.O=S(=O)([N-]S(=O)(=O)C(F)(F)F)C(F)(F)F, the activity coefficient runs as follows: (322.9 K) 6.52 ± 0.69; (333 K) 6.46 ± 0.68; (343.1 K) 6.37 ± 0.67.
